Several values for one entry are separate records, joined by “and”; a condition that tells them apart may be missing. Equal values may be shown once.
Test system: MDA-MB-231/TGL cells
Test: metabolomic assay (polar metabolite profiling, mass spectrometry)
Assay type: cell-based, human
Experimental: Cells were seeded in a 10 cm cell culture plate with DMEM containing 10% FBS, 0.2 mM L-glutamine and 1% penicillin/streptomycin. After 16 hours of incubation, metabolites were extracted from the cells using 80% methanol. The remaining steps were carried out with no change according to the methods of Goncalves et al, PNAS, 115:4, E743-E752 (2018). All data analyses were done using MetaboAnalyst.
7 × 10^6 cells were seeded in 10-cm cell culture plates with DMEM containing 10% FBS, 0.2 mM L-glutamine and 1% penicillin/streptomycin. Additionally, MCF7/TGL/pQ was cultured in media containing 0.5 µgml^-1 puromycin and 25 mM HEPES. After 16 hours of incubation, metabolites were extracted from the cells using 80% methanol. The remaining steps were carried out by Weill Cornell Medicine Proteomics and Metabolomics Core Facility according to M. D. Goncalves et al., Proc Natl Acad Sci USA 115, E743-E752 (2018). All data analyses were done using MetaboAnalyst 4.0 (www.metaboanalyst.ca/).
To investigate whether 250 ppm CO mimics hypoxia, the HiF1α protein levels were examined in CO treated MCF7/TGL and MDA-MB-231/TGL cells. […] To determine whether 250 ppm CO affects metabolism, polar metabolites were profiled using two breast cancer cell lines, MCF7/TGL and MDA-MB-231/TGL (FIGS. 7-9).

[1] = MDA-MB-231/TGL cells treated with CO (250 ppm), replicates CO 1-3
[2] = MDA-MB-231/TGL cells, 250 ppm CO, 16 hours

[C-]#[O+] [CO, Carbon monoxide]
Peak Height of metabolite intensity: L-Aspartic acid (HMDB00191) [1]: 9,529,167 and 11,274,240 and 16,105,810 | Peak Height of metabolite intensity: L-Carnitine (HMDB00062) [1]: 180,708,600 and 186,528,100 and 206,022,400 | Peak Height of metabolite intensity: L-Cystathionine (HMDB00099) [1]: 371,785 and 449,627 and 589,036 | Peak Height of metabolite intensity: L-Dihydroorotic acid (HMDB03349) [1]: 281,053 and 429,139 and 448,915 | Peak Height of metabolite intensity: L-Glutamic acid (HMDB00148) [1]: 655,681,000 and 727,466,400 and 916,546,500 | Peak Height of metabolite intensity: L-Glutamine (HMDB00641) [1]: 1,601,450,000 and 1,636,785,000 and 1,523,599,000 | Peak Height of metabolite intensity: L-Histidine (HMDB00177) [1]: 120,776,800 and 113,578,300 and 158,867,000 | Peak Height of metabolite intensity: L-Isoleucine (HMDB00172) [1]: 271,615,500 and 275,153,400 and 327,851,400 | Peak Height of metabolite intensity: L-Kynurenine (HMDB00684) [1]: 280,930 and 306,374 and 392,315 | Peak Height of metabolite intensity: L-Lactic acid (HMDB00190) [1]: 289,904,000 and 340,883,500 and 383,011,600 | Peak Height of metabolite intensity: L-Leucine (HMDB00687) [1]: 283,061,200 and 273,188,600 and 323,263,900 | Peak Height of metabolite intensity: L-Lysine (HMDB00182) [1]: 24,306,150 and 24,075,250 and 28,401,380 | Peak Height of metabolite intensity: L-Methionine (HMDB00696) [1]: 84,626,580 and 79,234,880 and 99,088,640 | Peak Height of metabolite intensity: L-Palmitoylcarnitine (HMDB00222) [1]: 73,260 and 167,693 and 194,186 | Peak Height of metabolite intensity: L-Phenylalanine (HMDB00159) [1]: 221,726,300 and 225,785,500 and 288,325,000 | Peak Height of metabolite intensity: L-Proline (HMDB00162) [1]: 612,301,800 and 622,349,000 and 718,183,500 | Peak Height of metabolite intensity: L-Serine (HMDB00187) [1]: 47,600,670 and 48,117,350 and 49,703,860 | Peak Height of metabolite intensity: L-Threonine (HMDB00167) [1]: 137,793,200 and 134,164,900 and 175,180,900 | Peak Height of metabolite intensity: L-Tryptophan (HMDB00929) [1]: 29,250,240 and 30,006,710 and 37,673,960 | Peak Height of metabolite intensity: L-Tyrosine (HMDB00158) [1]: 62,958,740 and 63,148,990 and 80,943,860 | Peak Height of metabolite intensity: L-Valine (HMDB00883) [1]: 112,753,800 and 120,589,500 and 133,489,100 | Peak Height of metabolite intensity: Malic acid (HMDB00744) [1]: 185,995,600 and 208,411,100 and 232,110,400 | Peak Height of metabolite intensity: Mannitol (HMDB00765) [1]: 9,124,205 and 9,515,589 and 10,944,240 | Peak Height of metabolite intensity: Methionine sulfoxide (HMDB02005) [1]: 1,343,863 and 1,483,506 and 1,747,311 | Peak Height of metabolite intensity: Methylimidazoleacetic acid (HMDB02820) [1]: 1,358,938 and 1,418,950 and 1,508,563 | Peak Height of metabolite intensity: Myoinositol (HMDB00211) [1]: 29,719,830 and 34,248,940 and 40,470,300 | Peak Height of metabolite intensity: N6,N6,N6-Trimethyl-L-lysine (HMDB01325) [1]: 1,450,139 and 1,666,314 and 1,913,626 | Peak Height of metabolite intensity: N6-Acetyl-L-lysine (HMDB00206) [1]: 127,774 and 112,788 and 139,608 | Peak Height of metabolite intensity: N-Acetyl-L-alanine (HMDB00766) [1]: 3,499,773 and 3,556,484 and 4,596,263 | Peak Height of metabolite intensity: N-Acetyl-L-aspartic acid (HMDB00812) [1]: 82,644,790 and 91,504,070 and 102,958,000 | Peak Height of metabolite intensity: N-Acetyl-L-methionine (HMDB11745) [1]: 2,318,960 and 1,894,539 and 2,276,345 | Peak Height of metabolite intensity: N-Acetyl-glucosamine 1-phosphate (HMDB01367) [1]: 1,300,461 and 800,586 and 850,336 | Peak Height of metabolite intensity: N-Acetylasparagine (HMDB06028) [1]: 90,904 and 92,805 and 102,592 | Peak Height of metabolite intensity: N-Acetylaspartylglutamic acid (HMDB01067) [1]: 473,464 and 613,919 and 690,837 | Peak Height of metabolite intensity: N-Acetylglutamic acid (HMDB01138) [1]: 7,524,119 and 8,837,337 and 8,010,711 | Peak Height of metabolite intensity: N-Acetylglutamine (HMDB06029) [1]: 1,923,159 and 2,058,882 and 2,006,294 | Peak Height of metabolite intensity: N-Acetylornithine (HMDB03357) [1]: 261,750 and 259,387 and 327,139 | Peak Height of metabolite intensity: N-Acetylputrescine (HMDB02064) [1]: 5,287,508 and 7,257,189 and 5,943,667 | Peak Height of metabolite intensity: N-Formyl-L-methionine (HMDB01015) [1]: 2,242,009 and 2,343,563 and 2,318,203 | Peak Height of metabolite intensity: NAD (HMDB00902) [1]: 17,332,970 and 21,051,080 and 23,992,650 | Peak Height of metabolite intensity: NADH (HMDB01487) [1]: 583,067 and 148,307 and 116,715 | Peak Height of metabolite intensity: NADP (HMDB00217) [1]: 120,286 and 98,434 and 96,478 | Peak Height of metabolite intensity: NADPH (HMDB00221) [1]: 71,492 and 67,909 and 76,928 | Peak Height of metabolite intensity: Niacinamide (HMDB01406) [1]: 1,982,720 and 1,686,510 and 1,871,343 | Peak Height of metabolite intensity: Nicotinamide ribotide (HMDB00229) [1]: 110,026 and 75,372 and 93,843 | Peak Height of metabolite intensity: Ornithine (HMDB00214) [1]: 960,744 and 1,035,848 and 1,261,077 | Peak Height of metabolite intensity: Orotic acid (HMDB00226) [1]: 303,308 and 293,998 and 226,604 | Peak Height of metabolite intensity: Oxidized glutathione (HMDB03337) [1]: 3,793,739 and 4,422,168 and 4,949,576 | Peak Height of metabolite intensity: Oxoglutaric acid (HMDB00208) [1]: 40,551,530 and 45,257,220 and 44,892,300 | Peak Height of metabolite intensity: Pantothenic acid (HMDB00210) [1]: 66,785,200 and 78,653,480 and 81,031,300 | Peak Height of metabolite intensity: Phenylacetylglycine (HMDB00821) [1]: 1,773,254 and 1,725,235 and 1,760,408 | Peak Height of metabolite intensity: Phenyllactic acid (HMDB00779) [1]: 59,693 and 75,824 and 89,853 | Peak Height of metabolite intensity: Phosphoenolpyruvic acid (HMDB00263) [1]: 1,119,695 and 505,583 and 468,849 | Peak Height of metabolite intensity: Phosphorylcholine (HMDB01565) [1]: 926,340,400 and 954,637,100 and 1,004,940,000 | Peak Height of metabolite intensity: Propionylcamitine (HMDB00824) [1]: 42,262,630 and 48,738,950 and 53,591,860 | Peak Height of metabolite intensity: Pyridoxine (HMDB00239) [1]: 9,272,513 and 10,102,820 and 10,351,980 | Peak Height of metabolite intensity: Pyroglutamic acid (HMDB00267) [1]: 95,285,270 and 98,786,160 and 116,343,300 | Peak Height of metabolite intensity: Pyruvic acid (HMDB00243) [1]: 2,402,001 and 2,700,020 and 2,237,894 | Peak Height of metabolite intensity: Riboflavin (HMDB00244) [1]: 84,676 and 97,270 and 112,665 | Peak Height of metabolite intensity: S-Adenosylmethionine (HMDB01185) [1]: 6,948,937 and 8,437,885 and 9,944,495 | Peak Height of metabolite intensity: S-Lactoylglutathione (HMDB01066) [1]: 2,114,224 and 2,485,483 and 1,817,914 | Peak Height of metabolite intensity: Sedoheptulose 1,7-bisphosphate (HMDB60274) [1]: 119,260 and 114,671 and 139,219 | Peak Height of metabolite intensity: Succinic acid (HMDB00254) [1]: 9,808,415 and 11,432,620 and 14,473,460 | Peak Height of metabolite intensity: Taurine (HMDB00251) [1]: 250,114,800 and 184,320,000 and 217,876,200 | Peak Height of metabolite intensity: Taurochenodesoxycholic acid (HMDB00951) [1]: 47,031 and 60,620 and 60,122 | Peak Height of metabolite intensity: Thiamine (HMDB00235) [1]: 24,404,230 and 28,664,720 and 27,656,500 | Peak Height of metabolite intensity: Threonic acid (HMDB00943) [1]: 107,442,800 and 103,948,700 and 114,088,000 | Peak Height of metabolite intensity: Thymidine 5′-triphosphate (HMDB01342) [1]: 177,094 and 147,940 and 156,549 | Peak Height of metabolite intensity: Thymidine (HMDB00273) [1]: 143,606 and 96,280 and 76,717 | Peak Height of metabolite intensity: Thymine (HMDB00262) [1]: 962,069 and 884,966 and 960,234 | Peak Height of metabolite intensity: Ureidosuccinic acid (HMDB00828) [1]: 1,132,717 and 1,612,814 and 1,811,192 | Peak Height of metabolite intensity: Uric acid (HMDB00289) [1]: 2,415,527 and 1,430,740 and 933,580 | Peak Height of metabolite intensity: Uridine 5′-diphosphate (HMDB00295) [1]: 2,964,858 and 3,462,504 and 2,781,952 | Peak Height of metabolite intensity: Uridine 5′-monophosphate (HMDB00288) [1]: 904,984 and 1,359,673 and 975,233 | Peak Height of metabolite intensity: Uridine (HMDB00296) [1]: 1,893,519 and 318,302 and 299,157 | Peak Height of metabolite intensity: Uridine diphosphate glucose (HMDB00286) [1]: 4,959,327 and 5,703,347 and 6,869,287 | Peak Height of metabolite intensity: Uridine diphosphate-N-acetylglucosamine (HMDB00290) [1]: 20,151,160 and 26,809,930 and 32,502,900 | Peak Height of metabolite intensity: Uridine triphosphate (HMDB00285) [1]: 1,308,516 and 1,268,414 and 1,538,242 | Peak Height of metabolite intensity: Urocanic acid (HMDB00301) [1]: 334,329 and 651,672 and 192,858 | Peak Height of metabolite intensity: Xanthine (HMDB00292) [1]: 1,967,615 and 1,894,384 and 2,180,514 | Peak Height of metabolite intensity: Xanthylic acid (HMDB01554) [1]: 36,455 and 11,062 and 9,617 | Peak Height of metabolite intensity: cis-Aconitic acid (HMDB00072) [1]: 20,740,980 and 23,097,840 and 24,649,890 | Peak Height of metabolite intensity: dCTP (HMDB00998) [1]: 7,042 | Peak Height of metabolite intensity: dGDP (HMDB00960) [1]: 10,335,950 and 11,215,290 and 10,659,650 | Peak Height of metabolite intensity: dUMP (HMDB01409) [1]: 484,834 and 490,872 and 603,149 | citric acid and phosphoenolpyruvic acid [2]: did not provide statistically significant results | nine common metabolites (fumaric acid, L-Dihydroorotic acid, D-2-Hydroxyglutaric, malic acid, NAD, GDP-glucose, pyruvic acid, inosinic acid, oxoglutaric acid) [2]: significantly downregulated | pyruvic acid, oxoglutaric acid, malic acid, and fumaric acid (TCA intermediates) [2]: significantly downregulated | abundance of metabolites tested (metabolomics profiling) (MDA-MB-231/TGL cells, 250 ppm carbon monoxide for 16 hours): reduced the abundance of the majority of metabolites tested

From patent US20230346831A1, “METHODS FOR TREATING […] USING LOW DOSE CARBON MONOXIDE” (priority 2020, published 2023)
